# Patent publication US11357779B2 (G1 Therapeutics, Inc., priority 2018, dated 2022)
# Read-outs that look alike come from different tables or passages of the source.
# Test: Noncompartmental pharmacokinetic parameters (Cmax, Tmax, AUC, Racc) in QD and BID cohorts of Form B
# Assay type: in vivo, human
# Settings: Compound III; for AUC(0-t) / Cmax / Tmax: human, plasma, oral
# Experimental: Analysis of plasma concentration versus time data for calculation of standard pharmacokinetic (PK) parameters following oral administration was conducted using Phoenix WinNonlin version 6.3 using actual blood sampling times.
# The following pharmacokinetic parameters were calculated from the concentration versus time data obtained in Example 1 for each of the above QD (200 mg, 300 mg, 400 mg, 500 mg, or 650 mg dosed) and BID (100 mg, 150 mg, or 200 mg doses) Form B of Compound II dosage cohorts: • Cmax—the observed peak plasma concentration determined from the plasma concentration versus time data obtained on Day 1 and Day 29, as applicable; • Tmax—the time to reach the observed peak plasma concentration from the plasma concentration versus time data obtained on Day 1 and Day 29, as applicable; • AUC—area under the plasma concentration versus time curve during a dosing interval on Day 1 and Day 29, as applicable; and • Racc—accumulation ratio calculated as AUCDay 29/AUCDay 1.
# [1] = 100 mg BID of Form B, Cohort 6, Day 1
# [2] = 100 mg BID of Form B, Cohort 6, Day 29
# [3] = 150 mg BID of Form B, Cohort 7, Day 1
# [4] = 150 mg BID of Form B, Cohort 7, Day 29
# [5] = 200 mg BID of Form B, Cohort 8, Day 1
# [6] = 200 mg BID of Form B, Cohort 8, Day 29
# [7] = 200 mg QD of Form B, Cohort 1, Day 1
# [8] = 200 mg QD of Form B, Cohort 1, Day 29
# [9] = 300 mg QD of Form B, Cohort 2, Day 1
# [10] = 300 mg QD of Form B, Cohort 2, Day 29
# [11] = 400 mg QD of Form B, Cohort 3, Day 1
# [12] = 400 mg QD of Form B, Cohort 3, Day 29
# [13] = 500 mg QD of Form B, Cohort 4, Day 1
# [14] = 500 mg QD of Form B, Cohort 4, Day 29
# [15] = 650 mg QD of Form B, Cohort 5, Day 1
# [16] = 650 mg QD of Form B, Cohort 5, Day 29
smiles,measurement,setting,value
"O=C1NCC2(CCCCC2)n2c1cc1cnc(Nc3ccc(N4CCNCC4)cn3)nc12 [Compound III, 2′-((5-(piperazin-1-yl)pyridin-2-yl)amino)-7′,8′-dihydro-6′H-spiro[cyclohexane-1,9′-pyrazino[1′,2′:1,5]pyrrolo[2,3-d]pyrimidin]-6′-one]",AUClast (Max),[1],8.61 ng·h/mL
same,AUClast (Min),[1],2.87 ng·h/mL
same,Cmax (Max),[1],2.12 ng/mL
same,Cmax (Min),[1],1.11 ng/mL
same,AUClast (Max),[2],21.6 ng·h/mL
same,AUClast (Min),[2],3.45 ng·h/mL
same,Cmax (Max),[2],3.11 ng/mL
same,Cmax (Min),[2],0.855 ng/mL
same,Tmax (Max),[2],12.0 h
same,AUClast (Max),[3],17.5 ng·h/mL
same,AUClast (Min),[3],15.7 ng·h/mL
same,Cmax (Max),[3],3.67 ng/mL
same,Cmax (Min),[3],2.93 ng/mL
same,AUClast (Max),[4],101 ng·h/mL
same,AUClast (Min),[4],19.4 ng·h/mL
same,Cmax (Max),[4],12.2 ng/mL
same,Cmax (Min),[4],2.93 ng/mL
same,AUClast (Max),[5],25.4 ng·h/mL
same,AUClast (Min),[5],6.18 ng·h/mL
same,Cmax (Max),[5],4.07 ng/mL
same,Cmax (Min),[5],1.40 ng/mL
same,AUClast (Max),[6],30.8 ng·h/mL
same,AUClast (Min),[6],15.2 ng·h/mL
same,Cmax (Max),[6],4.12 ng/mL
same,Cmax (Min),[6],1.49 ng/mL
same,Tmax (Max),[6],12.0 h
same,AUClast (Max),[7],58.5 ng·h/mL
same,AUClast (Min),[7],5.29 ng·h/mL
same,Cmax (Max),[7],7.82 ng/mL
same,Cmax (Min),[7],1.27 ng/mL
same,AUClast (Max),[8],64.2 ng·h/mL
same,AUClast (Min),[8],1.97 ng·h/mL
same,Cmax (Max),[8],6.11 ng/mL
same,Cmax (Min),[8],0.864 ng/mL
same,AUClast (Max),[9],65.2 ng·h/mL
same,AUClast (Min),[9],10.9 ng·h/mL
same,Cmax (Max),[9],6.40 ng/mL
same,Cmax (Min),[9],1.82 ng/mL
same,Tmax (Min),[9],60 min
same,AUClast (Max),[10],97.5 ng·h/mL
same,AUClast (Min),[10],45.1 ng·h/mL
same,Cmax (Max),[10],6.05 ng/mL
same,Cmax (Min),[10],4.70 ng/mL
same,Tmax (Max),[10],8.00 h
same,AUClast (Max),[11],29.8 ng·h/mL
same,AUClast (Min),[11],17.8 ng·h/mL
same,Cmax (Max),[11],6.87 ng/mL
same,Cmax (Min),[11],3.02 ng/mL
same,Tmax (Min),[11],60 min
same,AUClast (Max),[12],54.7 ng·h/mL
same,AUClast (Min),[12],32.2 ng·h/mL
same,Cmax (Max),[12],4.54 ng/mL
same,Cmax (Min),[12],2.55 ng/mL
same,AUClast (Max),[13],91.4 ng·h/mL
same,AUClast (Min),[13],61.6 ng·h/mL
same,Cmax (Max),[13],9.03 ng/mL
same,Cmax (Min),[13],6.84 ng/mL
same,AUClast (Max),[14],69.8 ng·h/mL
same,AUClast (Min),[14],59.8 ng·h/mL
same,Cmax (Max),[14],7.91 ng/mL
same,AUClast (Max),[15],174 ng·h/mL
same,AUClast (Min),[15],61.8 ng·h/mL
same,Cmax (Max),[15],16.5 ng/mL
same,Cmax (Min),[15],5.56 ng/mL
same,Tmax (Max),[15],8.00 h
same,AUClast (Max),[16],169 ng·h/mL
same,AUClast (Min),[16],80.6 ng·h/mL
same,Cmax (Max),[16],12.1 ng/mL
same,Cmax (Min),[16],5.30 ng/mL
same,Tmax (Max),[16],8.00 h
same,AUC(0-t),"100 mg, 100 mg BID of Form B, Cohort 6, Day 1, read-out: AUClast (Mean)",5.37 ng·h/mL
same,AUC(0-t),"100 mg, 100 mg BID of Form B, Cohort 6, Day 1, read-out: AUClast (Median)",5.18 ng·h/mL
same,Cmax,"100 mg, 100 mg BID of Form B, Cohort 6, Day 1, read-out: Cmax (Mean)",1.59 ng/mL
same,Cmax,"100 mg, 100 mg BID of Form B, Cohort 6, Day 1, read-out: Cmax (Median)",1.6 ng/mL
same,Tmax,"100 mg, 100 mg BID of Form B, Cohort 6, Day 1, read-out: Tmax (Mean)",3.17 h
same,Tmax,"100 mg, 100 mg BID of Form B, Cohort 6, Day 1, read-out: Tmax (Median)",3 h
same,AUC(0-t),"100 mg, 100 mg BID of Form B, Cohort 6, Day 29, read-out: AUClast (Mean)",13 ng·h/mL
same,AUC(0-t),"100 mg, 100 mg BID of Form B, Cohort 6, Day 29, read-out: AUClast (Median)",9.86 ng·h/mL
same,Cmax,"100 mg, 100 mg BID of Form B, Cohort 6, Day 29, read-out: Cmax (Mean)",1.89 ng/mL
same,Cmax,"100 mg, 100 mg BID of Form B, Cohort 6, Day 29, read-out: Cmax (Median)",1.56 ng/mL
same,Tmax,"100 mg, 100 mg BID of Form B, Cohort 6, Day 29, read-out: Tmax (Mean)",4.4 h
same,Tmax,"100 mg, 100 mg BID of Form B, Cohort 6, Day 29, read-out: Tmax (Median)",2 h
same,AUC(0-t),"150 mg, 150 mg BID of Form B, Cohort 7, Day 1, read-out: AUClast (Mean)",16.5 ng·h/mL
